Measured values: US10508088B2, “Methods using HDAC11 inhibitors” (FORMA Therapeutics, Inc., priority 2016, dated 2019)

What was measured:
[1] = target: HDAC3 co-expressed with nuclear receptor corepressor (Ncor2) (Homo sapiens (Human), UniProt O15379); test: HDAC inhibition assay, electrophoretic mobility shift (Nanosyn); conditions: read-out: HDAC Biochemical IC50 HDAC3
Experimental: (§1) This example describes in vitro inhibition properties of exemplary HDAC11 inhibitors for various HDACs. HDAC inhibition assays were performed using an electrophoretic mobility shift assay at Nanosyn, Inc. (Santa Clara, Calif.). Full length human recombinant HDAC proteins were expressed in the baculoviral system and purified by affinity chromatography. A human recombinant HDAC3 was co-expressed with nuclear receptor corepressor (Ncor2). The following peptide substrates were used: FAM-RHKK(Ac)-NH2 for HDAC3, HDAC6 and HDAC8; FITC-H3K27(Ac)-NH2 for HDAC1, HDAC2 and HDAC10; FAM-RHKK(tri-fluor-Ac)-NH2 for HDAC4, HDAC5, HDAC7, HDAC9 and HDAC11. Reactions consisting of compound, enzyme, and substrate were performed in reaction buffer (comprised of 100 mM HEPES, pH7.5, 25 mM KCl, 0.1% bovine serum albumin, 0.01% Triton X-100) at 25° C. and quenched by the addition of termination buffer (100 mM HEPES, pH7.5, 0.01% Triton X-100, 0.05% SDS). The fluorescence intensity of the electrophoretically separated de-acetylated product and substrate peptide were measured and analyzed using the LabChip® 3000 microfluidic electrophoresis instrument (Perkin Elmer/Caliper Life Sciences). The IC50 values of inhibitors were determined by fitting the %-inhibition curves with 4 parameter dose-response model using XLfit 4 software (IDBS).

HDAC5 = HDAC5 (Homo sapiens (Human), UniProt Q9UQL6); test: as above; conditions: read-out: HDAC Biochemical IC50 HDAC5
Experimental: as §1

HDAC6 = HDAC6 (Homo sapiens (Human), UniProt Q9UBN7); test: as above; conditions: read-out: HDAC Biochemical IC50 HDAC6
Experimental: as §1

HDAC9 = HDAC9 (Homo sapiens (Human), UniProt Q9UKV0); test: as above; conditions: read-out: HDAC Biochemical IC50 HDAC9
Experimental: as §1

A549 cells = test: Cell proliferation assay with combination treatment (MTT); format: cell-based; conditions: A549, combination with GDC-0449 (Vismodegib) or BMS-833923, 96 hours
Experimental: (§2) Selective HDAC11 inhibitors may be useful in combination with other targeted agents, including Jak2 inhibitors and Smoothened inhibitors. The effect of combination with the Smoothened inhibitors GDC-0449 (Vismodegib) and BMS-833923 was tested in lung cancer cell lines. A549 and NCI-H2170 cells were obtained from the ATCC. H2170 is a squamous carcinoma cell line. Cell viability was assessed using MTT reagent (Thiazolyl Blue Tetrazolium Bromide) (Sigma-Aldrich). The cells were grown in 96-well plates at a density of 3000-5000 cells/well in triplicates. The HDAC11 inhibitors were added to the adherent cells at different concentrations and treatment was carried out for 96 hours. After treatments, the cells were incubated with the 1 mg/mL MTT reagent at 37° C. for 1 hour. The reaction was terminated with DMSO that solubilizes the formazan product formed. Absorbance at 590 nm was recorded in a plate reader.

NCI-H2170 cells = test: as above; format: cell-based; conditions: H2170, combination with GDC-0449 (Vismodegib) or BMS-833923, 96 hours
Experimental: as §2

H1650 SP cells = test: Tube formation assay with stem-like side population NSCLC cells; format: cell-based; conditions: H1650 SP cells on Matrigel
Experimental: The angiogenic tubule assay was performed with the sorted side population cells to analyze vascular mimicry. The H1650 side population cells were sorted as mentioned above and they were further grown on Matrigel (BD Biosciences) to form angiogenic tubule-like structures. 100 μl of thawed Matrigel was layered on the wells of 96-well tissue culture plates and allowed to polymerize at 37° C. for 30 min. Sorted H1650 SP cells were layered (12000 cells/100 μl of Matrigel) on the polymerized matrigel and incubated overnight at 37° C. Tubule formation was assessed under bright field using EVOS FL microscope system and images were acquired with EVOS software (Life Technologies Inc., USA). For the treatment with HDAC11 inhibitors, appropriate concentrations of the compounds were added to the cells when they were seeded on Matrigel for the tubule formation assay.

[2] = target: Full length human recombinant HDAC11 (Homo sapiens (Human), UniProt Q96DB2); test: Enzymatic HDAC11 assay, electrophoretic mobility shift; format: biochemical; conditions: substrate FAM-RHKK(tri-fluor-Ac)-NH2, read-out: HDAC11 IC50 Range
Method in brief: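 Baculovirus-expressed enzyme (10 nM) with 2 μM FAM-RHKK(tri-fluor-Ac)-NH2 in 100 mM HEPES pH 7.5, 25 mM KCl, 0.1% BSA, 0.01% Triton X-100, 1% DMSO at 25 °C. Substrate and product separated by microfluidic electrophoresis; inhibition from product/(substrate+product) ratio. IC50 by 4-parameter fit over 12 concentrations.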

HDAC3 co-expressed with nuclear receptor corepressor (Ncor2), sequence (O15379 whole entry): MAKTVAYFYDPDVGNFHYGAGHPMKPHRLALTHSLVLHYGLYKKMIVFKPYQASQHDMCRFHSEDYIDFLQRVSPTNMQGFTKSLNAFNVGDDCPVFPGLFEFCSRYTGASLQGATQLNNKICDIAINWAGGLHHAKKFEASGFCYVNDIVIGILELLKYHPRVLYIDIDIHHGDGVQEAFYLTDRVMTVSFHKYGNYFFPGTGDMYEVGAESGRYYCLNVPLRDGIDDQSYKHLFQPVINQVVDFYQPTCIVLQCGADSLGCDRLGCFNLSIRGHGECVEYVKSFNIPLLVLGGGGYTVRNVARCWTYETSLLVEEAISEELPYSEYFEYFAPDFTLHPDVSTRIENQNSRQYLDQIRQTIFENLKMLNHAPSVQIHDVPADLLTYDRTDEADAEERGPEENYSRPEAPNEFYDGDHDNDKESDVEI
HDAC3 co-expressed with nuclear receptor corepressor (Ncor2), sequence (Q9Y618 395-489 partner): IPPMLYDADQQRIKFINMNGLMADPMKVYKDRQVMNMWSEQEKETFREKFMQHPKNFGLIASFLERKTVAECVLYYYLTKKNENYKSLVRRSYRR
HDAC5, sequence (Q9UQL6 whole entry): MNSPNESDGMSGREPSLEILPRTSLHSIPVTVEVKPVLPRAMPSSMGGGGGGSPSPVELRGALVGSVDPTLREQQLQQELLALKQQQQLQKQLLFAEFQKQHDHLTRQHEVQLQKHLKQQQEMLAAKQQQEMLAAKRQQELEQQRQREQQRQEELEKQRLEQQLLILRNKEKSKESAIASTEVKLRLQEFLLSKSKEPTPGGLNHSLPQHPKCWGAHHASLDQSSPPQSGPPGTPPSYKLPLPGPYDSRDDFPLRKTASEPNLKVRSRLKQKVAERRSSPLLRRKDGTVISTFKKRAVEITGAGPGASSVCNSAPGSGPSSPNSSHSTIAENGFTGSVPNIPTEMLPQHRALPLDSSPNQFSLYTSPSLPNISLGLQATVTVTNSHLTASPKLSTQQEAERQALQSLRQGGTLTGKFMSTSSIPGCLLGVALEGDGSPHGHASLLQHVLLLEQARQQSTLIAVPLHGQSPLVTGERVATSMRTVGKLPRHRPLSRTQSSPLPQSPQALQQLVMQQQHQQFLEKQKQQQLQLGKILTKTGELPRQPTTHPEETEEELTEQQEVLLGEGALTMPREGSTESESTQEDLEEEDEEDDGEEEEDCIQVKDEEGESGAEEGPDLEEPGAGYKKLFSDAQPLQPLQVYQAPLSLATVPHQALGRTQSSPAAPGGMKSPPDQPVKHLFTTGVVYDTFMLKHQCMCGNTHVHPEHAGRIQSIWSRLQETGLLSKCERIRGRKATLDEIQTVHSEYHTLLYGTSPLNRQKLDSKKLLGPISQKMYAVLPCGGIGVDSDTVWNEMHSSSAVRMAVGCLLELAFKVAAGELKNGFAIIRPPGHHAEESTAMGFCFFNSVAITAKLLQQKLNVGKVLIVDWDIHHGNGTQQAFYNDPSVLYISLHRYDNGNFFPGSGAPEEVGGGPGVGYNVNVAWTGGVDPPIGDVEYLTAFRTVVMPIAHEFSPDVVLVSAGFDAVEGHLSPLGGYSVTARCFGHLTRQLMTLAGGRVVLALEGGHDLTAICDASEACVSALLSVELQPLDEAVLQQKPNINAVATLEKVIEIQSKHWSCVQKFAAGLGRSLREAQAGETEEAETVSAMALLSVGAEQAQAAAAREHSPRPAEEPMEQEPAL
HDAC9, sequence (Q9UKV0 whole entry): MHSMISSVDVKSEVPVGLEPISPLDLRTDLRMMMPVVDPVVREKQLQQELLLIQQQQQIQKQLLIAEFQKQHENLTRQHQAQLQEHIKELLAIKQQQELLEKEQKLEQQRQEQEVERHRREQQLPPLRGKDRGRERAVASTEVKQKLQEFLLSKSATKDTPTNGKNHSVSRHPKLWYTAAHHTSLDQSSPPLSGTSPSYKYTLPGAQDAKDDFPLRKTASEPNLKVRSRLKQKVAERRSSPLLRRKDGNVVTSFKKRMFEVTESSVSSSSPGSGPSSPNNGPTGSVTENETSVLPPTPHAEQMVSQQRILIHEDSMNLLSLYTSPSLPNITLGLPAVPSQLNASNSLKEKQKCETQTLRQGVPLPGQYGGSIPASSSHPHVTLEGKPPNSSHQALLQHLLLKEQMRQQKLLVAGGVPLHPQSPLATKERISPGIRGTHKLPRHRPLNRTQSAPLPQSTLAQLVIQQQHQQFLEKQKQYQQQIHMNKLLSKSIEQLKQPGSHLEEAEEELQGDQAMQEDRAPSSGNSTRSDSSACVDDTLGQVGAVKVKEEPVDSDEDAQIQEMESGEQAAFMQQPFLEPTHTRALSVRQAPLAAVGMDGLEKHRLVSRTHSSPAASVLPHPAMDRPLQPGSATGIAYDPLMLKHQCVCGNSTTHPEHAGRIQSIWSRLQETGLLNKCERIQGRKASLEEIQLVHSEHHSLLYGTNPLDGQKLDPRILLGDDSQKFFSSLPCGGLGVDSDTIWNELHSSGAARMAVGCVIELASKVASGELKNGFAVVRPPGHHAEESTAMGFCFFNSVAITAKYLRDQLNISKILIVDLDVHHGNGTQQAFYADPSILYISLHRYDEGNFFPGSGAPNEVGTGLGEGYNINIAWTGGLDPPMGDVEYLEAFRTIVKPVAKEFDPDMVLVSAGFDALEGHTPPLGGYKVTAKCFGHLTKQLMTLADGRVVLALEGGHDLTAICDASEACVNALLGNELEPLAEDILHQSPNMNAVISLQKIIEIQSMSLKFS
HDAC6, sequence (Q9UBN7 whole entry): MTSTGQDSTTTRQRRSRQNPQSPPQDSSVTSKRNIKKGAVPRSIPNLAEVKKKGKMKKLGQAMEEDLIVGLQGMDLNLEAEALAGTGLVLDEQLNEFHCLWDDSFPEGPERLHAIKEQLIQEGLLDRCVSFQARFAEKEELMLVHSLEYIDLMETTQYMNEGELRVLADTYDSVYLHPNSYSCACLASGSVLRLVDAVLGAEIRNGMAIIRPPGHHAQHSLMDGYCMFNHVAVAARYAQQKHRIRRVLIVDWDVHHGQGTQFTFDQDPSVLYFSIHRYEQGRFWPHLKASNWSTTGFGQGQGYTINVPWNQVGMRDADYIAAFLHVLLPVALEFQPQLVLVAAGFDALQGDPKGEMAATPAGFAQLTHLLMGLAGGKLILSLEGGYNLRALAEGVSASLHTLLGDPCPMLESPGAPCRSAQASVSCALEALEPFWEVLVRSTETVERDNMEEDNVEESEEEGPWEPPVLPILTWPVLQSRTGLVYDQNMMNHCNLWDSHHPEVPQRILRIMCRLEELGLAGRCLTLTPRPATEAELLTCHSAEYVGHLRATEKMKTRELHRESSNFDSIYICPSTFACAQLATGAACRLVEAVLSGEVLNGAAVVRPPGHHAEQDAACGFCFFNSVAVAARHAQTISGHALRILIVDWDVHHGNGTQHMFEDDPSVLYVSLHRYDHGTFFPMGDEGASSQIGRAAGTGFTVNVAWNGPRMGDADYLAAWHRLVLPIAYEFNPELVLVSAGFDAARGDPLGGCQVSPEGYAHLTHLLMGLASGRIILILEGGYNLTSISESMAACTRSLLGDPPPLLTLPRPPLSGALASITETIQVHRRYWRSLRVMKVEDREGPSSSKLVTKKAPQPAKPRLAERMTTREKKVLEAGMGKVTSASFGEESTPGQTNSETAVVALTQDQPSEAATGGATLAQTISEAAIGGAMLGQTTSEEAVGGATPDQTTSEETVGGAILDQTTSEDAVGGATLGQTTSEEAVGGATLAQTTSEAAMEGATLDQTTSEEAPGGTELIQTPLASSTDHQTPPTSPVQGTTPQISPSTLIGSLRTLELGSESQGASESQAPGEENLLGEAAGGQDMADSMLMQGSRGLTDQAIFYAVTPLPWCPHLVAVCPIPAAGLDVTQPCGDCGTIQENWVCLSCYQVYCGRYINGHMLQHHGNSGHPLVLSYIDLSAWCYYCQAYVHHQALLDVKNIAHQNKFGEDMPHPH
Full length human recombinant HDAC11, sequence (Q96DB2 whole entry): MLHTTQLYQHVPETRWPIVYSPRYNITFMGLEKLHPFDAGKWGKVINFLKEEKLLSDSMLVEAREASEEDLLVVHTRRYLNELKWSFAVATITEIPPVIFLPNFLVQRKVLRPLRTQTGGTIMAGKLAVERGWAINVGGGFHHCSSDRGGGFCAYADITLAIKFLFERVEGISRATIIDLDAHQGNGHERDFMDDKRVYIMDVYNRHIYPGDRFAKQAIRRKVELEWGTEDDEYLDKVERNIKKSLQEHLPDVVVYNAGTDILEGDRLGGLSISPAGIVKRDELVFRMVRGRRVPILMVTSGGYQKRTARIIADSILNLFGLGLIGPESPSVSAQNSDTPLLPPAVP

| IC50 [2] | SMILES | IC50 [1] | IC50 (HDAC5) | IC50 (HDAC6) | IC50 (HDAC9) | cell viability, combination with the Smoothened inhibitors (A549 cells) | cell viability, combination with the Smoothened inhibitors (NCI-H2170 cells) | tubule formation (H1650 SP cells) |
| --- | --- | --- | --- | --- | --- | --- | --- | --- |
| – | O=C(NO)c1cccc(Nc2nc3cc(Cl)c(Cl)cc3o2)c1 [HDTK010, 3-((5,6-dichlorobenzo[d]oxazol-2-yl)amino)-N-hydroxybenzamide] | > 10 µM | > 10 µM | 0.5 to 1 µM | > 10 µM | decreased cell viability | decreased cell viability | – |
| < 0.5 µM | O=C(NO)c1cccc2c1C[C@]1(CCN(Cc3ccc(Cl)c(C(F)(F)F)c3)C1=O)C2 [HDTK054, (S)-1′-(4-chloro-3-(trifluoromethyl)benzyl)-N-hydroxy-2′-oxo-1,3-dihydrospiro[indene-2,3′-pyrrolidine]-4-carboxamide] | > 10 µM | > 10 µM | > 10 µM | > 10 µM | decreased cell viability | decreased cell viability | inhibited tubule formation |
